# Assay results: patent publication US20070149505A1, “Method of Inhibiting Adhesion Formation” (SmithKline Beecham Corporation, priority 2001, published 2007)
# Where “and” joins values, the source holds several entries; their conditions need not be identical. Equal values may be shown once.
# Test system: uterine horn adhesions
# Experiment: rabbit uterine horn model of adhesion formation, oral + local (gel) COMPOUND 1 study
# Format: in vivo, New Zealand White rabbits
# Set-up: key to tenacity of the adhesions score (in parentheses), Right Horn, Bowel / tenacity of the adhesions score (in parentheses), Right Horn, Itself / tenacity of the adhesions score (in parentheses), Left Horn, Itself / tenacity of the adhesions score (in parentheses), Right Horn, Left / tenacity of the adhesions score (in parentheses), Left Horn, Bowel / tenacity of the adhesions score (in parentheses), Left Horn, Right / tenacity of the adhesions score (in parentheses), Right Horn, Bladder / tenacity of the adhesions score (in parentheses), Left Horn, Bladder: 0=No Adhesions; 1=mild, easily dissectable adhesions; 2=moderate adhesions; non-dissectable, does not tear the organ; 3=dense adhesions; non-dissectable, tears organ when removed; key to Overall score: overall adhesion score; 1 = mild, 1.5+ slightly tougher/more extensive
# Conditions: for Overall, (group summary): group value ± spread, overall scores analyzed by rank order analysis
# Protocol: The compounds of the instant invention are tested in known models of adhesion formation. These test systems include a rabbit sidewall model of adhesion formation as described in Rogers, et al., J. Invest. Surg., 9:388-391 (1996) and Rodgers, et al., […], 69(3):403-408 (1998); a rat model for adhesion formation as described in Harris, et al., Surgery, 117:663-669 (1995); and a rabbit animal model used to examine laparoscopic adhesion prevention. The rabbit uterine horn model may also be used to test the use of the instant vitronectin inhibiting compounds as inhibitors of adhesion formation. The experimental details and results using this model are detailed below.
# Animals: New Zealand White rabbits, 2.4-2.7 kg, were purchased and quarantined for at least 2 days prior to use. The rabbits were randomized into appropriate control and treatment groups (see experimental designs below). The rabbits were housed on a 12:12 light:dark cycle with food and water available ad libitum. Each treatment group in all studies contained 8-10 animals.
# Adhesion Model: The animals that received COMPOUND 1 or vehicle according to the experimental design (below). The rabbits that received placebo at surgery received two doses of vehicle orally. Rabbits were anesthetized with a mixture of 55 mg/kg ketamine hydrochloride and 5 mg/kg Rompum intramuscularly. Following preparation for sterile surgery, a midline laparotomy was performed. The uterine horns were exteriorized and traumatized by abrasion of the serosal surface with gauze until punctate bleeding developed. Ischemia of both uterine horns was induced by removal of the collateral blood supply. The remaining blood supply to the uterine horns was the ascending branches of the utero-vaginal arterial supply of the myometrium. The midline muscle and skin incision were closed.
# After 7 or 14 days, the rabbits were terminated and adhesions were scored on a site and rabbit basis. Specifically, the percentage of the area of the horns adherent to various organs was determined. In addition, the tenacity of the adhesions was scored using the following system:
# 1=mild, easily dissectable adhesions
# 3=dense adhesions; non-dissectable, tears organ when removed
# An overall score which took into account all of the above data was given to each rabbit. The following scoring system was used:
# 0.5+ Light, filmy pelvic adhesions involving only one organ, typically only 1 or 2 small adhesions
# 1.0+ Light, filmy adhesions, not extensive although slightly more extensive than 0.5
# 1.5+ Adhesions slightly tougher and more extensive than a 1 rating
# 2.0+ Tougher adhesions, a little more extensive, uterine horns usually have adhesions to both bowel and bladder
# 2.5+ Same as 2, except the adhesions are usually not filmy at any site and more extensive
# 3.0+ Tougher adhesions than 2, more extensive, both horns are attached to the bowel and bladder, some movement of the uterus possible
# 3.5+ Same as 3, but adhesions slightly more extensive and tougher
# 4.0+ Severe adhesions, both horns attached to the bowel and bladder, unable to move the uterus without tearing the adhesions
# The rabbits were scored by two independent observers that were blinded to the prior treatment of the animal. If there was disagreement as to the score to be assigned to an individual animal, the higher score was given.
# Statistical Analysis: The tenacity and overall scores were analyzed by rank order analysis and analysis of variance on the ranks. The percentage area of the horns involved to the various organs were compared by Student's t test.
# […] received two loading doses of 60 mg/kg COMPOUND 1 orally prior to surgery. At the end of the procedure, the animals received either nothing (surgical control), or 12 ml of placebo (10% CMC) or one of two doses (1 mg/ml or 0.1 mg/ml) of COMPOUND 1 at the site of surgical injury.
# Oral+local study: Two loading doses of COMPOUND 1 (60 mg/kg, po) were administered orally prior to surgery. […]
# [1] = 1 mg/ml COMPOUND 1, 1 Week Necropsy Time, group mean ± spread
# [2] = 1 mg/ml COMPOUND 1, 1 Week Necropsy Time, individual rabbit
# [3] = 1 mg/ml COMPOUND 1, 1 Week Necropsy Time, individual rabbit, dash = site adhesion free
# [4] = 1 mg/ml COMPOUND 1, 2 Week Necropsy Time, group mean ± spread
# [5] = 1 mg/ml COMPOUND 1, 2 Week Necropsy Time, individual rabbit
# [6] = 1 mg/ml COMPOUND 1, 2 Week Necropsy Time, individual rabbit, dash = site adhesion free
# [7] = 1 mg/ml COMPOUND 1, listed after Control/Placebo 1 Week
# [8] = 1 mg/ml COMPOUND 1, listed after Control/Placebo 2 Weeks
structure (smiles),measurement,setting,value
"O=C(O)C[C@@H]1Cc2ccc(OCCCNc3ccccn3)cc2CN(CC(F)(F)F)C1=O [COMPOUND 1, (S)-3-oxo-8-[3-(pyridin-2-ylamino)-1-propyloxy]-2-(2,2,2-trifluoroethyl)-2,3,4,5-tetrahydro-1H-2-benzazepine-4-acetic acid]",% Sites Adhesion Free,"0.1 mg/ml COMPOUND 1, listed after Control/Placebo 2 Weeks",38.75%
same,"% Horn Involved, Left Horn, Bladder",[1],0.0 ± 0.0%
same,"% Horn Involved, Left Horn, Bowel",[1],18.0 ± 4.2%
same,"% Horn Involved, Left Horn, Itself",[1],18.0 ± 4.7%
same,"% Horn Involved, Left Horn, Right",[1],15.0 ± 4.0%
same,"% Horn Involved, Right Horn, Bladder",[1],3.0 ± 1.5%
same,"% Horn Involved, Right Horn, Bowel",[1],19.0 ± 3.8%
same,"% Horn Involved, Right Horn, Itself",[1],10.0 ± 4.2%
same,"% Horn Involved, Right Horn, Left",[1],15.0 ± 4.0%
same,"Overall, (group summary)","1 mg/ml COMPOUND 1, 1 Week Necropsy Time",21.3 ± 3.9
same,Overall score,[2],1.0 (3×) and 0.5 and 1.5 (5×) and 2.0
same,"tenacity of the adhesions score (in parentheses), Left Horn, Bowel",[2],1
same,"tenacity of the adhesions score (in parentheses), Left Horn, Itself",[2],1
same,"tenacity of the adhesions score (in parentheses), Left Horn, Right",[2],1 (6×) and 2
same,"tenacity of the adhesions score (in parentheses), Right Horn, Bladder",[2],1
same,"tenacity of the adhesions score (in parentheses), Right Horn, Bowel",[2],1
same,"tenacity of the adhesions score (in parentheses), Right Horn, Itself",[2],1
same,"tenacity of the adhesions score (in parentheses), Right Horn, Left",[2],1 (6×) and 2
same,"% Horn Involved, Left Horn, Bowel",[3],30% (4×) and 20% (3×)
same,"% Horn Involved, Left Horn, Itself",[3],20% (2×) and 30% (3×) and 10% and 40%
same,"% Horn Involved, Left Horn, Right",[3],20% (2×) and 10% (2×) and 30% (3×)
same,"% Horn Involved, Right Horn, Bladder",[3],10%
same,"% Horn Involved, Right Horn, Bowel",[3],30% (4×) and 10% and 20% (3×)
same,"% Horn Involved, Right Horn, Itself",[3],20% (2×) and 10% (2×) and 40%
same,"% Horn Involved, Right Horn, Left",[3],20% (2×) and 10% (2×) and 30% (3×)
same,"% Horn Involved, Left Horn, Bladder",[4],4.0 ± 2.7%
same,"% Horn Involved, Left Horn, Bowel",[4],17.0 ± 5.2%
same,"% Horn Involved, Left Horn, Itself",[4],18.0 ± 4.2%
same,"% Horn Involved, Left Horn, Right",[4],5.0 ± 3.4%
same,"% Horn Involved, Right Horn, Bladder",[4],4.0 ± 2.2%
same,"% Horn Involved, Right Horn, Bowel",[4],13.0 ± 4.0%
same,"% Horn Involved, Right Horn, Itself",[4],13.0 ± 5.0%
same,"% Horn Involved, Right Horn, Left",[4],5.0 ± 3.4%
same,"Overall, (group summary)","1 mg/ml COMPOUND 1, 2 Week Necropsy Time",21.2 ± 5.5
same,Overall score,[5],1.0 (5×) and 2.5 and 1.5 (2×) and 0.5 and 2.0
same,"tenacity of the adhesions score (in parentheses), Left Horn, Bladder",[5],2 and 1
same,"tenacity of the adhesions score (in parentheses), Left Horn, Bowel",[5],2 (2×) and 1 (4×)
same,"tenacity of the adhesions score (in parentheses), Left Horn, Itself",[5],1 (6×) and 2 (2×)
same,"tenacity of the adhesions score (in parentheses), Left Horn, Right",[5],2 and 1
same,"tenacity of the adhesions score (in parentheses), Right Horn, Bladder",[5],1
same,"tenacity of the adhesions score (in parentheses), Right Horn, Bowel",[5],1 (6×) and 2
same,"tenacity of the adhesions score (in parentheses), Right Horn, Itself",[5],1 (4×) and 2
same,"tenacity of the adhesions score (in parentheses), Right Horn, Left",[5],2 and 1
same,"% Horn Involved, Left Horn, Bladder",[6],20%
same,"% Horn Involved, Left Horn, Bowel",[6],30% (4×) and 10% and 40%
same,"% Horn Involved, Left Horn, Itself",[6],20% (3×) and 30% (2×) and 10% (2×) and 40%
same,"% Horn Involved, Left Horn, Right",[6],30% and 20%
same,"% Horn Involved, Right Horn, Bladder",[6],10% (2×) and 20%
same,"% Horn Involved, Right Horn, Bowel",[6],10% (4×) and 30% (3×)
same,"% Horn Involved, Right Horn, Itself",[6],20% and 30% (2×) and 10% and 40%
same,"% Horn Involved, Right Horn, Left",[6],30% and 20%
same,# Sites Adhesion Free,[7],36
same,% Sites Adhesion Free,[7],45.0%
same,# Sites Adhesion Free,[8],45
same,% Sites Adhesion Free,[8],56.25%
